This is an account of results in PMC3891837 (American journal of obstetrics and gynecology, 2013).

Where two headings read alike, the source gives them in different places.

The term IC50 denotes the concentration needed to halve the response being measured.

The test system of data set [1] is efflux transporters (P-gp, MRP, BCRP). In kind it is biochemical. Conditions: human, inside-out vesicles from placental brush border membranes, pH 7.4, probe [3H]-paclitaxel, 40 nM.
On the set-up of data set [2]: species or system human.
The subject of data set [3] is efflux transporters (P-gp, MRP, BCRP). In kind it is biochemical. Particulars: human, inside-out vesicles from placental brush border membranes, pH 7.4, probe [3H]-estrone sulfate, 100 nM.
On the set-up of data set [4]: species or system human. The source holds these as a separate data set.

In data set [1], `CC[C@H](C)C(=O)O[C@H]1C[C@H](O)C=C2C=C[C@H](C)[C@H](CC[C@@H](O)C[C@@H](O)CC(=O)O)[C@H]21` [Pravastatin, pravastatin] gave an IC50 at 1 min of 11 µM. Besides, the “normalized transfer (Clearance index) to antipyrine” value in data set [2] (Maternal-to-Fetal direction) turned out to be 0.36 ± 0.07. Besides, the “concentration in the fetal circuit at the end of the experimental period” value in data set [2] (M→F, 4-hour perfusion, initial donor concentration 50 ng/mL) was found to be 8.8 ± 1.8 ng/mL. Besides, in data set [2] (M→F, end of 4-hour perfusion), the “drug remained in the maternal circuit” value is listed as 68 ± 5%, the “drug retained by the tissue” value came to 14 ± 5%, the “drug transferred to the fetal circuit” value worked out at 18 ± 4% and the fetal/maternal concentration ratio was found to be 0.26 ± 0.06. In data set [2] (M→F, initial donor concentration 50 ng/mL), the “appearance in the fetal circuit after start of perfusion” value is “within the initial five minutes”. Also, the 50% inhibitory concentration (IC50) at 3 min in data set [3] was determined as 30 µM. Besides, in data set [4] (Fetal-to-Maternal direction, p < 0.01 vs Maternal to Fetal), the “normalized transfer (Clearance index) to antipyrine” value worked out at 0.48 ± 0.07. Besides, the “concentration in the maternal circuit at the end of perfusion” value in data set [4] (F→M, 4 hours of perfusion, initial donor concentration 50 ng/mL) is recorded as 6.4 ± 1.0 ng/mL. Also, in data set [4] (F→M, end of 4 hours of perfusion), the maternal/fetal concentration ratio is given as 0.19 ± 0.03. Moreover, in data set [4] (F→M, initial donor concentration 50 ng/mL), the “time to appearance in the maternal (recipient) circuit” value is recorded as “less than 5 minutes”.

Regarding `Cc1cc(=O)n(-c2ccccc2)n1C` [antipyrine], the “transplacental transfer of antipyrine” value in data set [2] (marker compound, 20 μg/mL, dual perfusion, 4 h) is “approximately 50%”.
